Results published in patent publication US20090011424A1, “Cancer-suppressing agents” (Tokyo Medical and Dental University, priority 2005, published 2009).

Tests used:
[1] = system: IMR32 cells; experiment: soft agar colony formation after gene introduction; type: cell-based, human; details: 3 weeks, 500 μg/ml G418, vs empty vector
Description: (§1) Adherence to solid matter has been known as an example of a difference between properties of normal cells and those of cancer cells under culture conditions. In other words, it is necessary for normal cells to adhere to solid matter for cell proliferation (anchorage dependence). When normal cells are cultured in a soft agar medium (about 0.33%), they can not proliferate while floating in such medium. However, many cancer cells lack anchorage dependence so that they can proliferate in a soft agar medium. Since floating cancer cells cannot move in a soft agar medium, a single cancer cell is repeatedly divided such that the divided cells form a colony in 1 to 3 weeks time. Since there is a correlation between the ability of the cell to form a soft agar colony and the implanted tumor forming ability, the degree of such ability has been widely used as an index of malignancy (Shin, S. I., et al., Proc. Natl. Acad. Sci. USA 72, 4435, 1975). A full-length NR1I2 cDNA was inserted into pCMV-Tag3 vector (Stratagene) in which an myc peptide can be added to the amino terminal of an inserted gene (PCMV-Tag3-NR1I2). In addition, we already have discovered that a fusion product of a herpes-virus-derived VP16 protein and an NR1I2 protein has stronger transcriptional activity than that of an NR1I2 protein alone. […] Then, the number of colonies was counted (FIGS. 8A and 8B).

[2] = system: SMS-KAN cells; experiment: soft agar colony formation after gene introduction; type: cell-based, human; details: 3 weeks, 500 μg/ml G418, vs empty vector
Description: as §1

NR1I2 gene: human-derived gene, nuclear receptor subfamily 1, group I, member 2 (pregnane X receptor, PXR), nucleotide sequence SEQ ID NO: 1
number of colonies [1]: significantly reduced | number of colonies [2]: significantly reduced
